Measurements: US10526339B2, “Substituted glucosepanes and compositions thereof” (YALE UNIVERSITY, priority 2015, dated 2020)

Columns and labels:
[1] = EXSY NOESY conformational exchange (E/Z isomerization); type: physicochemical
From the text: With synthetic glucosepane (5) in hand, we next investigated its structural features using multidimensional NMR techniques. […] Indeed, although the original glucosepane isolation report did note the possibility of E/Z isomerism in acyclic 2-amino imidazoles, the presence of these exchange peaks in the case of glucosepane have previously been incorrectly attributed to stereoisomerism at the C-8a stereocenter.^(35) Using an EXSY (EXchange SpectroscopY) NOESY sequence,^(34) the inventors were able to calculate an approximate rate for this conformational exchange process on the order of 3 s^−1 in D2O.^28
The integral ratios and tm were used to calculate an approximate rate by the following formula:^5
[formula] Xa=mole fraction of conformer A Xb=mole fraction of conformer B Iaa=integral intensity for diagonal peak (conformer A) Ibb=integral intensity for diagonal peak (conformer B) Iab and Iba=integral intensity for cross-peak Sample calculation with the data provided above: […]

[2] = Glucosepane pKa study (UV pH titration)
From the text: The inventors next took advantage of glucospane's intrinsic spectral properties to measure the pKa of the iso-imidazole core.

[3] = Hydrogen/deuterium exchange at C-8a in D2O; type: physicochemical; details: basic conditions (aqueous NaOD), either epimer

SMILES | approximate rate of conformational exchange (E/Z isomerization about exocyclic C2-N bond) ([1]; in D2O, EXSY NOESY) [s⁻¹] | pKa [2] | time for quantitative hydrogen/deuterium exchange at the C-8a H-atom [3] [min] | k ([1]; sample calculation from 2D NOESY integrals, tm 1.00 sec) [s⁻¹]
N[C@@H](CCCCN1C[C@@H](O)[C@@H](O)C[C@@H]2N=C(NCCC[C@H](N)C(=O)O)N=C21)C(=O)O (stereo in doubt) [Compound 5, Glucosepane Tris-Trifluoroacetate] | ~3 | ~12 | < 60 | 
N[C@@H](CCCCN1C[C@@H](O)[C@@H](O)C[C@@H]2N=C(NCCC[C@H](N)C(=O)O)N=C21)C(=O)O [Compound 5, Glucosepane Tris-Trifluoroacetate] |  |  |  | 2.89
